Experiments:
[1] = target: T1, Sodium/nucleoside cotransporter 2 (Homo sapiens, UniProt O43868); assay: Inhibition of human CNT2 expressed in COS7 cells assessed as reduction in sodium-dependent [14C]-inosine uptake in presence of Na+ by liquid scintillation counting method; assay type: cell-based, COS-7
T1 sequence (O43868 whole entry): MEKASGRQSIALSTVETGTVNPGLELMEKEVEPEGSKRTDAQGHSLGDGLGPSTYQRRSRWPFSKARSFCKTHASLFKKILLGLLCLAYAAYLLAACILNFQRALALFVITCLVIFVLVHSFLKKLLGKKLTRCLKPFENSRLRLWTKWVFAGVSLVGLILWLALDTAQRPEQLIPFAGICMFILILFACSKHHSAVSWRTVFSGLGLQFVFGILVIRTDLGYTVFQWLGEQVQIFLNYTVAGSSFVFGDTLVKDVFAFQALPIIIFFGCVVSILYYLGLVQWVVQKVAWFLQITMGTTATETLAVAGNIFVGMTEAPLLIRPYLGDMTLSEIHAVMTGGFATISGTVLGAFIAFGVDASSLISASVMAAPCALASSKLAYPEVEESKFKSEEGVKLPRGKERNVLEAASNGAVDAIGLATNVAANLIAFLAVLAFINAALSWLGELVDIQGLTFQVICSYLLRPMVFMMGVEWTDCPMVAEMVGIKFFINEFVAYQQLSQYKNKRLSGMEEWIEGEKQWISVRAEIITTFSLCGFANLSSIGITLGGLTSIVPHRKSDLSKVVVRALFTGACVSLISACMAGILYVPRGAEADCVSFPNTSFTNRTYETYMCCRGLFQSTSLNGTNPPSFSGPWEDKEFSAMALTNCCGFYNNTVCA

[2] = target: T2, Sodium/nucleoside cotransporter 2 (Homo sapiens) (UniProt O43868); assay: Potency index, ratio of IC50 for 7,8,3'-trihydroxyflavone to IC50 for test compound against human CNT2 expressed in COS7 cells by sodium-dependent [14C]-inosine uptake assay; assay type: cell-based; details: COS-7
T2 sequence (whole entry): T1 sequence (O43868 whole entry)

[3] = target: T2, Sodium/nucleoside cotransporter 2 (Homo sapiens); assay: Potency index, ratio of IC50 for 2'-deoxy-5-fluorouridine to IC50 for test compound against human CNT2 expressed in COS7 cells by sodium-dependent [14C]-inosine uptake assay; assay type: cell-based; details: COS-7
[4] = target: T2, Sodium/nucleoside cotransporter 2 (Homo sapiens); assay: Potency index, ratio of IC50 for phlorizin to IC50 for test compound against human CNT2 expressed in COS7 cells by sodium-dependent [14C]-inosine uptake assay; assay type: cell-based; details: COS-7
[5] = target: T2, Sodium/nucleoside cotransporter 2 (Homo sapiens); assay: Inhibition of human CNT2 expressed in COS7 cells assessed as reduction in sodium-dependent [14C]-inosine uptake at 100 uM in presence of Na+ by liquid scintillation counting method; assay type: cell-based; details: COS-7
[6] = target: T2, Sodium/nucleoside cotransporter 2 (Homo sapiens); assay: Inhibition of human CNT2 expressed in COS7 cells assessed as reduction in sodium-dependent [14C]-inosine uptake at 1000 uM in presence of Na+ by liquid scintillation counting method; assay type: cell-based; details: COS-7

Compound | IC50 [1] | inhibition [5] | further results
COc1cccc(CNc2nc3c(N)ncnc3n2[C@@H]2O[C@H](CO)[C@@H](O)[C@H]2O)c1 | 13 µM | – | –
Nc1ncnc2c1nc(NCc1ccc3ccccc3c1)n2[C@@H]1O[C@H](CO)[C@@H](O)[C@H]1O | 5.3 µM | – | –
Nc1ncnc2c1nc(NCc1ccc(-c3ccccc3)cc1)n2[C@@H]1O[C@H](CO)[C@@H](O)[C@H]1O | 0.64 µM | – | Ratio IC50 [2]: 1500; Ratio IC50 [3]: 1500; Ratio IC50 [4]: 1500
COc1ccccc1CNc1nc2c(N)ncnc2n1[C@@H]1O[C@H](CO)[C@@H](O)[C@H]1O | > 100 µM | – | –
COc1ccc(CNc2nc3c(N)ncnc3n2[C@@H]2O[C@H](CO)[C@@H](O)[C@H]2O)cc1 | 36 µM | – | –
C[C@H](Nc1nc2c(N)ncnc2n1[C@@H]1O[C@H](CO)[C@@H](O)[C@H]1O)c1ccccc1 | – | < 5% | –
Nc1ncnc2c1nc(NCCc1ccccc1)n2[C@@H]1O[C@H](CO)[C@@H](O)[C@H]1O | 233 µM | 39% | –
O=c1cc(-c2cccc(O)c2)oc2c(O)c(O)ccc12 | > 1000 µM | < 5% | inhibition [6]: < 50%
CCCCCC(=O)OC[C@H]1O[C@@H](n2cnc3c(N)ncnc32)[C@H](O)[C@@H]1O | > 100 µM | – | –
Cc1ccc(CNc2nc3c(N)ncnc3n2[C@@H]2O[C@H](CO)[C@@H](O)[C@H]2O)cc1 | 11 µM | – | –
CCCCCNC(=O)OC[C@H]1O[C@@H](n2cnc3c(N)ncnc32)[C@H](O)[C@@H]1O | > 100 µM | – | –
Nc1ncnc2c1nc(CCc1ccccc1)n2[C@@H]1O[C@H](CO)[C@@H](O)[C@H]1O | – | < 5% | –
CCCCCOC(=O)OC[C@H]1O[C@@H](n2cnc3c(N)ncnc32)[C@H](O)[C@@H]1O | > 100 µM | – | –
O=C(CCc1ccc(O)cc1)c1c(O)cc(O)cc1O[C@@H]1O[C@H](CO)[C@@H](O)[C@H](O)[C@H]1O [PHLORIZIN] | > 1000 µM | 14% | inhibition [6]: < 50%
Nc1ncnc2c1nc(NCc1ccccc1)n2[C@@H]1O[C@H](CO)[C@@H](O)[C@H]1O | 52 µM | 58% | –
CCOC(=O)OC[C@H]1O[C@@H](n2cnc3c(N)ncnc32)[C@H](O)[C@@H]1O | > 100 µM | – | –
CN(Cc1ccccc1)c1nc2c(N)ncnc2n1[C@@H]1O[C@H](CO)[C@@H](O)[C@H]1O | – | < 5% | –
Cc1ccccc1CNc1nc2c(N)ncnc2n1[C@@H]1O[C@H](CO)[C@@H](O)[C@H]1O | 65 µM | – | –
Nc1ncnc2c1nc(NCc1ccc(Cl)cc1)n2[C@@H]1O[C@H](CO)[C@@H](O)[C@H]1O | 11 µM | – | –
CCNC(=O)OC[C@H]1O[C@@H](n2cnc3c(N)ncnc32)[C@H](O)[C@@H]1O | > 100 µM | – | –

Compound | IC50 [1] | inhibition [5] | further results
CC(=O)OC[C@H]1O[C@@H](n2cnc3c(N)ncnc32)[C@H](O)[C@@H]1O | > 100 µM | – | –
Nc1ncnc2c1nc(NCc1cccc(Cl)c1)n2[C@@H]1O[C@H](CO)[C@@H](O)[C@H]1O | 5.4 µM | – | –
Nc1ncnc2c1nc(OCc1ccccc1)n2[C@@H]1O[C@H](CO)[C@@H](O)[C@H]1O | – | < 5% | –
CCC(=O)OC[C@H]1O[C@@H](n2cnc3c(N)ncnc32)[C@H](O)[C@@H]1O | > 100 µM | – | –
C[C@@H](Nc1nc2c(N)ncnc2n1[C@@H]1O[C@H](CO)[C@@H](O)[C@H]1O)c1ccccc1 | – | < 5% | –
Nc1ncnc2c1nc(SCc1ccccc1)n2[C@@H]1O[C@H](CO)[C@@H](O)[C@H]1O | – | < 5% | –
O=c1[nH]c(=O)n([C@H]2C[C@H](O)[C@@H](CO)O2)cc1F [FLOXURIDINE] | > 1000 µM | 17% | inhibition [6]: < 50%
CNC(=O)OC[C@H]1O[C@@H](n2cnc3c(N)ncnc32)[C@H](O)[C@@H]1O | > 100 µM | – | –
Nc1ncnc2c1ncn2[C@@H]1O[C@H](COC(=O)Cc2ccccc2)[C@@H](O)[C@H]1O | > 100 µM | – | –
Nc1ncnc2c1nc(NCc1ccccc1-c1ccccc1)n2[C@@H]1O[C@H](CO)[C@@H](O)[C@H]1O | > 100 µM | – | –
Nc1ncnc2c1nc(NCc1cccc(-c3ccccc3)c1)n2[C@@H]1O[C@H](CO)[C@@H](O)[C@H]1O | 21 µM | – | –
Nc1ncnc2c1nc(NCc1cccc3ccccc13)n2[C@@H]1O[C@H](CO)[C@@H](O)[C@H]1O | 5.7 µM | – | –
Nc1ncnc2c1ncn2[C@@H]1O[C@H](COC(=O)NCc2ccccc2)[C@@H](O)[C@H]1O | > 100 µM | – | –
Nc1ncnc2c1nc(NCCCc1ccccc1)n2[C@@H]1O[C@H](CO)[C@@H](O)[C@H]1O | 536 µM | 26% | –
Cc1cccc(CNc2nc3c(N)ncnc3n2[C@@H]2O[C@H](CO)[C@@H](O)[C@H]2O)c1 | 19 µM | – | –
Nc1ncnc2c1ncn2[C@@H]1O[C@H](COC(=O)OCc2ccccc2)[C@@H](O)[C@H]1O | > 100 µM | – | –
Nc1ncnc2c1nc(Nc1ccccc1)n2[C@@H]1O[C@H](CO)[C@@H](O)[C@H]1O | 289 µM | 36% | –
Nc1ncnc2c1nc(NCc1ccccc1Cl)n2[C@@H]1O[C@H](CO)[C@@H](O)[C@H]1O | 5.7 µM | – | –
COC(=O)OC[C@H]1O[C@@H](n2cnc3c(N)ncnc32)[C@H](O)[C@@H]1O | > 100 µM | – | –

Reference: ChEMBL document CHEMBL3425401, “Identification of 8-aminoadenosine derivatives as a new class of human concentrative nucleoside transporter 2 inhibitors” (ACS Med Chem Lett, 2015)
